In ChEMBL document CHEMBL6153137, “Design, Synthesis, and Biological Evaluation of Novel Orally Available Covalent CDK12/13 Dual Inhibitors for the Treatment of Tumors” (J Med Chem, 2025):
The source made the active and inactive calls. The rule behind the calls is not given here.

How the values were obtained:
[1] = Cmax in Sprague-Dawley rat at 5 mg/kg, po measured for 24 hrs by LC-MS/MS analysis; format: ADME, organism-based; conditions: in vivo
[2] = Cmax in Sprague-Dawley rat at 1 mg/kg, iv measured for 24 hrs by LC-MS/MS analysis; format: ADME, organism-based; conditions: in vivo
[3] = Cmax in Sprague-Dawley rat at 15 mg/kg, po measured for 24 hrs by LC-MS/MS analysis; format: ADME, organism-based; conditions: in vivo
MDA-MB-231 = assay: Antiproliferative activity against human MDA-MB-231 cells assessed as reduction in cell viability incubated for 7 days by CellTiter-Glo reagent based luminescence analysis; format: functional; conditions: MDA-MB-231, 168 h
Caco-2 = assay: Antiproliferative activity against human Caco-2 cells assessed as reduction in cell viability incubated for 7 days by CellTiter-Glo reagent based luminescence analysis; format: functional; conditions: Caco-2, 168 h
Mus musculus = assay: In vivo inhibition of CDK12/13 in Balb/c mouse xenografted with human SUM149PT cells assessed as reduction in FANCI gene expression at 15 to 30 mg/kg, po administered once daily via gavage and measured at 4 hrs post-last drug dosage by qPCR analysis; format: functional, organism-based; conditions: dose 15-30 mg/kg
[4] = Toxicity against female Sprague-Dawley rat assessed as effect on AST level in blood at 7.5 to 30 mg/kg, po administered once daily via gavage for 28 days and measured on day 29; format: organism-based; conditions: in vivo, 696 h, dose 7.5-30 mg/kg, time 29 day
Cytochrome P450 1A2 = Cytochrome P450 1A2 (Homo sapiens, UniProt P05177); assay: Inhibition of CYP1A2 in human liver microsomes assessed as inhibition of phenacetin-O-deethylation incubated for 10 mins in presence of NADPH by LC-MS/MS analysis; format: ADME, Microsome
Sequence of Cytochrome P450 1A2 (P05177 whole entry): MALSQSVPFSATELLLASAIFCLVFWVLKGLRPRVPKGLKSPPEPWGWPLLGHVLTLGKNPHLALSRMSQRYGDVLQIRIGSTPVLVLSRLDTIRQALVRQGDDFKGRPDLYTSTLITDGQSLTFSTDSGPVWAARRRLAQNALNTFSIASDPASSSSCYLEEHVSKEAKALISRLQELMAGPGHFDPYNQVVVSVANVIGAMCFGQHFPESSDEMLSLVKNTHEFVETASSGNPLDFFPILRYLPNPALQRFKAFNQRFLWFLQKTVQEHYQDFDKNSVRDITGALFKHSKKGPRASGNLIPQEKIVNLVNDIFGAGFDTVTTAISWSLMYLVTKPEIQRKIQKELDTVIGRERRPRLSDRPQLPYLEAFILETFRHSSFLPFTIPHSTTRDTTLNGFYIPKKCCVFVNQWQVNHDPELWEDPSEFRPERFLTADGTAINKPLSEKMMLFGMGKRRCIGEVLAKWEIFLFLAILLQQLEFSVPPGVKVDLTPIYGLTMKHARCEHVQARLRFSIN

[5] = Cmax in Balb/c mouse xenografted with human MV4-11 cells at 15 mg/kg, po administered once daily via gavage; format: ADME, organism-based; conditions: in vivo
[6] = Half life in male Sprague-Dawley rat at 40 mg/kg, po administered once daily via gavage for 28 days; format: ADME, organism-based; conditions: in vivo, time 28 day
[7] = Cmax in Sprague-Dawley rat at 150 mg/kg, po measured for 24 hrs by LC-MS/MS analysis; format: ADME, organism-based; conditions: in vivo
[8] = Toxicity against male Sprague-Dawley rat assessed as effect on chlorine level in blood at 10 to 40 mg/kg, po administered once daily via gavage for 28 days and measured on day 29; format: organism-based; conditions: in vivo, 696 h, dose 10-40 mg/kg, time 29 day
[9] = Toxicity against female Sprague-Dawley rat assessed as increase in neutrophils content at 7.5 to 30 mg/kg, po administered once daily via gavage for 28 days and measured on day 29; format: organism-based; conditions: in vivo, 696 h, dose 7.5-30 mg/kg, time 29 day
[10] = AUC(0 to t) in male Sprague-Dawley rat at 20 mg/kg, po administered via gavage and measured on day 1; format: ADME, organism-based; conditions: in vivo, 24 h, time 1 day
[11] = target: CDK2/Cyclin A2 (Homo sapiens) (UniProt P24941+P20248); assay: Inhibition of human recombinat N-terminal GST-tagged CDK2/C-terminal 8X His-tagged Cyclin A2 expressed in HEP Sf9 cells using ATP as substrate at 2 uM measured after 60 mins by ADP-Glo reagent based luminescence analysis
[12] = Toxicity against male Sprague-Dawley rat assessed as effect on mean corpuscular hemoglobin at 10 to 40 mg/kg, po administered once daily via gavage for 28 days and measured on day 29; format: organism-based; conditions: in vivo, 696 h, dose 10-40 mg/kg, time 29 day
[13] = Cmax in male Sprague-Dawley rat at 40 mg/kg, po administered once daily via gavage for 28 days; format: ADME, organism-based; conditions: in vivo, time 28 day
[14] = AUC (0 to infinity) in Sprague-Dawley rat at 50 mg/kg, po by LC-MS/MS analysis; format: ADME, organism-based; conditions: in vivo
[15] = Half-life of the compound in human Plasma; format: ADME, cell-free
[16] = AUC(0 to t) in male Sprague-Dawley rat at 10 mg/kg, po administered via gavage and measured on day 1; format: ADME, organism-based; conditions: in vivo, 24 h, time 1 day
NCI-H508 = assay: Antiproliferative activity against human NCI-H508 cells assessed as reduction in cell viability incubated for 7 days by CellTiter-Glo reagent based luminescence analysis; format: functional; conditions: NCI-H508, 168 h
[17] = Toxicity against Balb/c mouse xenografted with human SUM149PT cells assessed as body weight at 30 to 60 mg/kg, po administered once daily via gavage and measured every 3 days for 3 weeks; format: organism-based; conditions: in vivo, 504 h, dose 30-60 mg/kg
[18] = Half-life in Balb/c mouse xenografted with human MV4-11 cells at 15 mg/kg, po administered once daily via gavage; format: ADME, organism-based; conditions: in vivo
[19] = AUC(0 to t) in female Sprague-Dawley rat at 30 mg/kg, po administered via gavage and measured on day 1; format: ADME, organism-based; conditions: in vivo, 24 h, time 1 day
[20] = Toxicity against female Sprague-Dawley rat assessed as effect on creatinine level in blood at 7.5 to 30 mg/kg, po administered once daily via gavage for 28 days and measured on day 29; format: organism-based; conditions: in vivo, 696 h, dose 7.5-30 mg/kg, time 29 day
[21] = Cmax in male Sprague-Dawley rat at 10 mg/kg, po administered via gavage and measured on day 1; format: ADME, organism-based; conditions: in vivo, time 1 day
[22] = target: CDK1/Cyclin E (Homo sapiens) (UniProt P06493+P24864); assay: Inhibition of human recombinant N-terminal GST-tagged CDK1/Cyclin E1 expressed in HEP Sf9 cells using ATP as substrate at 2 uM measured after 60 mins by ADP-Glo reagent based luminescence analysis
Sequence of CDK1/Cyclin E (Homo sapiens) (P06493 whole entry, looked up): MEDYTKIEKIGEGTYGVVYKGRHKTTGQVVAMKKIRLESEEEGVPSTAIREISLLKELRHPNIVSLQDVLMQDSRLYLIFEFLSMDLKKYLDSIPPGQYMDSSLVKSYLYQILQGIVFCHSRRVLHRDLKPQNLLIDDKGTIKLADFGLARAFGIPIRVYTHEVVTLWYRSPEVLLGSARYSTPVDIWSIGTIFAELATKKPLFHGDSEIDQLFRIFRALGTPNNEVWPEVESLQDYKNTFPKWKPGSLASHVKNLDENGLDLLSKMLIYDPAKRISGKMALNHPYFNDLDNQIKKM
Sequence of CDK1/Cyclin E (Homo sapiens) (P24864 whole entry, looked up): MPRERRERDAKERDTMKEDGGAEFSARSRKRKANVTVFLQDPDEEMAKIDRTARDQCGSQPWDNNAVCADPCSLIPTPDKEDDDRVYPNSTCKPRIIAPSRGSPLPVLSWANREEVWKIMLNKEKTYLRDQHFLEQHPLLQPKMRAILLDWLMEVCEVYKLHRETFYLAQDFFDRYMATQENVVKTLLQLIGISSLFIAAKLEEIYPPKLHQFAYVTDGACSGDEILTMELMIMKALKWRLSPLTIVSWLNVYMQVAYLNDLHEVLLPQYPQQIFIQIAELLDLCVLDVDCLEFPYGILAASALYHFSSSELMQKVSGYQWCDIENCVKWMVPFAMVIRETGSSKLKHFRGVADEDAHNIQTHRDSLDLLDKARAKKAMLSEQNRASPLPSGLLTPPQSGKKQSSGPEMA

OCI-AML-3 = assay: Antiproliferative activity against human OCI-AML-3 cells assessed as reduction in cell viability incubated for 7 days by CellTiter-Glo reagent based luminescence analysis; format: functional; conditions: OCI-AML-3, 168 h
[23] = Toxicity against female Sprague-Dawley rat assessed as effect on phosphorus level in blood at 7.5 to 30 mg/kg, po administered once daily via gavage for 28 days and measured on day 29; format: organism-based; conditions: in vivo, 696 h, dose 7.5-30 mg/kg, time 29 day
[24] = Toxicity against male Sprague-Dawley rat assessed as decrease in thymus weight at 10 to 40 mg/kg, po administered once daily via gavage for 28 days and measured on day 29; format: organism-based; conditions: in vivo, 696 h, dose 10-40 mg/kg, time 29 day
[25] = Half life in female Sprague-Dawley rat at 7.5 mg/kg, po administered via gavage and measured on day 1; format: ADME, organism-based; conditions: in vivo, time 1 day
[26] = Half life in Sprague-Dawley rat at 5 mg/kg, po measured for 24 hrs by LC-MS/MS analysis; format: ADME, organism-based; conditions: in vivo
[27] = AUC (0 to infinity) in Sprague-Dawley rat at 150 mg/kg, po by LC-MS/MS analysis; format: ADME, organism-based; conditions: in vivo
[28] = Toxicity against male Sprague-Dawley rat assessed as effect on glucose level in blood at 10 to 40 mg/kg, po administered once daily via gavage for 28 days and measured on day 29; format: organism-based; conditions: in vivo, 696 h, dose 10-40 mg/kg, time 29 day
[29] = AUC (0 to infinity) in Sprague-Dawley rat at 1 mg/kg, iv by LC-MS/MS analysis; format: ADME, organism-based; conditions: in vivo
Ramos = assay: Antiproliferative activity against human Ramos cells assessed as reduction in cell viability incubated for 7 days by CellTiter-Glo reagent based luminescence analysis; format: functional; conditions: 168 h
[30] = Half life in female Sprague-Dawley rat at 30 mg/kg, po administered once daily via gavage for 28 days; format: ADME, organism-based; conditions: in vivo, time 28 day
[31] = target: Mitogen-activated protein kinase 8 (Homo sapiens) (UniProt P45983); assay: Inhibition of JNK1 (unknown origin) at 5 uM by DiscoverX KinomeScan ScanMAX analysis
Sequence of Mitogen-activated protein kinase 8 (Homo sapiens) (P45983 whole entry): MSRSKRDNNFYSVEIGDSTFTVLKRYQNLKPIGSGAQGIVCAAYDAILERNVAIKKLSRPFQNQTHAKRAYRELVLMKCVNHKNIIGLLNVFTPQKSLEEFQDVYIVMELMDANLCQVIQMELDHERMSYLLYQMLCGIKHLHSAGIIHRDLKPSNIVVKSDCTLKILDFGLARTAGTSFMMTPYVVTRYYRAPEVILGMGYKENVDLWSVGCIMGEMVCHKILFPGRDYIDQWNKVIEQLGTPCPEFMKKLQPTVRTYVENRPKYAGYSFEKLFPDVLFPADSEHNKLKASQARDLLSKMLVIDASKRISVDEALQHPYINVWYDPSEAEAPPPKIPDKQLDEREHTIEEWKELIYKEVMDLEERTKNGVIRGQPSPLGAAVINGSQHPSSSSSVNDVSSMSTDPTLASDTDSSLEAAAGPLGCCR

Structure (SMILES): C=CC(=O)N1CCc2c(ncnc2N2CC[C@@H](Nc3ncc(Cl)c(OC)n3)C2)C1
- Cmax [1]: 808 ng/mL
- Cmax [2]: 830 ng/mL
- Cmax [3]: 797 ng/mL
- IC50 (MDA-MB-231): 58 nM
- IC50 (Caco-2): 122 nM
- inhibition (Mus musculus): Active
- Activity [4]: Non-toxic
- IC50 (Cytochrome P450 1A2): > 50000 nM
- Cmax [5]: 647 ng/mL
- half-life [6]: 6.9 h
- Cmax [7]: 3760 ng/mL
- Activity [8]: Non-toxic
- Activity [9]: Toxic
- AUCt [10]: 2550 ng·h/mL
- inhibition [11]: 1%
- Activity [12]: Non-toxic
- Cmax [13]: 2410 ng/mL
- AUC(0-inf) [14]: 6690 ng·h/mL
- half-life [15]: > 4.82 h
- AUCt [16]: 978 ng·h/mL
- IC50 (NCI-H508): 87 nM
- Activity [17]: Non-toxic
- half-life [18]: 4.09 h
- AUCt [19]: 9090 ng·h/mL
- Activity [20]: Non-toxic
- Cmax [21]: 460 ng/mL
- inhibition [22]: 24%
- IC50 (OCI-AML-3): 137 nM
- Activity [23]: Non-toxic
- Activity [24]: Toxic
- half-life [25]: 2 h
- half-life [26]: 0.8 h
- AUC(0-inf) [27]: 31200 ng·h/mL
- Activity [28]: Non-toxic
- AUC(0-inf) [29]: 270 ng·h/mL
- IC50 (Ramos): 101 nM
- half-life [30]: 4.5 h
- inhibition [31]: Active
